Target: T1, pyruvate formate-lyase activating enzyme (PFL-AE) (Escherichia coli, UniProt P0A9N4)
T1 sequence (P0A9N4 2-246): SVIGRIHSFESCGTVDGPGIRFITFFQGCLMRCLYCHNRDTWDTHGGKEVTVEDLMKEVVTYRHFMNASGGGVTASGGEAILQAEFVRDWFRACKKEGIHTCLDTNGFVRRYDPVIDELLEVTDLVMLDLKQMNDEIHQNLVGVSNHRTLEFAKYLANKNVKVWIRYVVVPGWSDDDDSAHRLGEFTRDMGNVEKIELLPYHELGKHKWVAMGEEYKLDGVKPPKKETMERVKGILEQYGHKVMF
Experiment: […] Mössbauer spectroscopy
Assay type: binding
Details: 0.64 mM enzyme, [4Fe-4S]2+ state; 4.2 K, 50 mT; unique Fe site of cluster

Structure (SMILES) | fraction of LOC cluster at 6.4 mM
Nc1ncnc2c1ncn2[C@@H]1O[C@H](COP(=O)(O)OP(=O)(O)O)[C@@H](O)[C@H]1O [ADP] | 50 % of total Fe
Nc1ncnc2c1ncn2[C@@H]1O[C@H](COP(=O)(O)O)[C@@H](O)[C@H]1O [AMP] | 69 % of total Fe
